What was measured:
[1] = log D7.4 by the shake flask method; format: physicochemical
KB tumor xenografts = test: Ex vivo biodistribution of [18F]FDG-AB-folate in nude mice bearing KB tumor xenografts; conditions: 2 h p.i., n = 3
Protocol: In vivo experiments were performed in female nude mice bearing KB tumor xenografts.
Animals were injected with ˜3 MBq of [^18F]FDG-AB-folate 34 via a lateral tail vein. Animals were sacrificed 2 h after radiotracer injection. Organs- and tissues were dissected and measured in the γ-counter (Wizard, PerkinElmer). The incorporated radioactivity was expressed as percentage injected dose (% ID) per gram of tissue.

log D7.4 value [1]: −3.2±0.4
Blood (KB tumor xenografts): 2.93 ± 0.55 % ID/g
Bone (KB tumor xenografts): 1.50 ± 0.24 % ID/g
Brain (KB tumor xenografts): 0.89 ± 0.17 % ID/g
Feces (KB tumor xenografts): 53.02 ± 26.52 % ID/g
Gallbladder (KB tumor xenografts): 83.78 ± 16.78 % ID/g
Heart (KB tumor xenografts): 3.20 ± 0.53 % ID/g
Intestine (KB tumor xenografts): 8.84 ± 7.07 % ID/g
Kidneys (KB tumor xenografts): 14.98 ± 1.47 % ID/g
Liver (KB tumor xenografts): 7.14 ± 0.78 % ID/g
Lungs (KB tumor xenografts): 2.44 ± 0.58 % ID/g
Muscle (KB tumor xenografts): 1.62 ± 0.26 % ID/g
Ratio Tumor/Blood (KB tumor xenografts): 3.33 ± 0.59
Ratio Tumor/Kidneys (KB tumor xenografts): 0.64 ± 0.07
Ratio Tumor/Liver (KB tumor xenografts): 1.34 ± 0.16
Salivary glands (KB tumor xenografts): 7.55 ± 0.08 % ID/g
Spleen (KB tumor xenografts): 0.81 ± 0.03 % ID/g
Stomach (KB tumor xenografts): 1.93 ± 0.51 % ID/g
Tumor (KB tumor xenografts): 9.51 ± 0.08 % ID/g
Compound: Nc1nc2ncc(CNc3ccc(C(=O)N[C@@H](CCC(=O)NC(Cc4cn([C@@H]5OC(CO)[C@@H](O)[C@H](O)C5[18F])nn4)C(=O)N[C@@H](CCCCNC(=O)CCCc4ccc(I)cc4)C(=O)O)C(=O)O)cc3)nc2c(=O)[nH]1 (stereo partly shown) [[^18F]FDG-AB-folate]

Reference: US9295739B2, “Folate conjugates of albumin-binding entities” (MERCK & CIE, priority 2011, dated 2016)
